Test system: Burkholderia pseudomallei
Test: Antimicrobial activity against Burkholderia pseudomallei Bp227 harboring deleted (bpeAB-oprA)::FRT gene after 24 hrs by broth microdilution method
Type: functional

Question: For GENTAMICIN, which MIC is on record?
Answer: 256 µg/mL

— ChEMBL document CHEMBL1275254 (2010)
